In ChEMBL document CHEMBL1151410, “Plant anticancer agents. XXII. Isolation of a phorbol diester and its delta 5,6-7 beta-hydroperoxide derivative from Ostodes paniculata” (1983):
Values after ≈ are worked out from the molar mass of the structure shown.

System: P388
Test: Cytotoxicity against mouse P388 cells
Type: functional
Conditions: read-out: ED50 (the source's name)

CCCCCCCC/C=C/C(=O)O[C@@H]1[C@@H](C)[C@@]2(O)[C@H]([C@@H]3C(C)(C)[C@]13OC(C)=O)[C@@H](OO)C(CO)=C[C@]1(O)C(=O)C(C)=C[C@@H]21 [OSTODIN]
EC50: 0.055 mg/L (≈ 0.0909 µM)
